{"source": "patent US20120196766A1", "about": "“Therapeutic Use of Farnesyltransferase Inhibitors and Methods of Monitoring the Efficacy Thereof” (priority 2004, published 2012)", "key": {"THP-1 cells [1]": {"tested_on": "THP-1 cells", "assay": "Reverse transcriptase and real-time quantitative PCR of LPS-induced transcription in THP-1 cells", "format": "cell-based, Human", "protocol": "THP-1 cells were cultured in RPMI1640 medium, supplemented with 10% FBS/100 units/ml Penicillin/10 μg/ml Streptomycin at 37° C., under 5% CO2. […] For the untreated control group (no LPS, no compound) and LPS alone group, equivalent volumes of DMSO were added to the medium. Cells were cultured at 37° C. and pellets were collected at 0 hr, 1 hr, 3 hr, 6 hr, 12 hr & 24 hr. Cell pellets were stored at −80° C. if RNA isolation was not conducted immediately. For experiments to study cytokine secretion in culture supernatants, THP-1 cells were washed twice with PBS, resuspended at 3.4×10^5/ml and cultured in 96-well plates at 250 μL, per well at 37° C. […] Supernatants were collected at different time points as indicated in the figures and were kept at ≦−20° C. until analysis of cytokine production.\nTotal RNA was isolated using RNeasy mini kit from QIAGEN (Valencia, Calif.) according to the manufacturer's instructions. RNA samples were stored at −80° C.\nTwo to three micrograms of DNase-treated total RNA were reverse transcribed to cDNA using the Transcriptor First Strand cDNA Synthesis Kit (Roche Diagnostics Corporation, Indianapolis, Ind.) according to the instructions.\nReal-time PCR was carried out with the LightCycler FastStart DNA Master^plus SYBR Green I kit (Roche Diagnostics) according to the manufacturer's instructions.\nThe PCR profile was as follows: (i) denaturation at 95° C. for 10 min. (ii) 45 cycles of 0 s at 95° C., 5 s at 54-58° C. (depending on Tm of the primers), 6-16 s (determined by the length of amplicon) at 72° C. (iii) melting curves for 0 s at 95° C., 15 s at 65° C. and 0 s at 95° C. (iv) cooling at 40° C. for 30 s. Transition rates were: 20° C./s for all steps except 0.1° C./s for 95° C. segment 3 of the melting curves.\nFor data analysis, the baseline adjustment was carried out in the “arithmetic” mode, and the fluorescence curve analysis was carried out in the “Second Derivative Maximum” mode of the LightCycler™ software (Version 3.5).\nThe primers used for real-time PCR were as follows (5′ to 3′): […]"}, "BALB/c mice": {"tested_on": "BALB/c mice", "assay": "LPS-induced cytokine production in vivo (murine model of LPS-induced inflammation)", "conditions": "for inhibition at 50 mg/kg: Mus musculus; for MCP-1 production: tipifarnib", "protocol": "The experiments were performed on female BALB/c mice (6-7 week old; Charles River Laboratories, Inc. MA). […] The control mice received the vehicle (20% cyclodextran) only. 20 μg LPS (Sigma), diluted in PBS, was injected into each mouse intraperitoneally. Blood samples were collected either by eye bleeding or cardiac puncture at 1 and 2 hours after LPS injection in one experiment, and at 2 and 3 hours after LPS injection in a second experiment. Plasma samples were collected by centrifugation, and stored at ≦−20° C. before being tested for cytokines using individual ELISA kits or Luminex analysis (see below).\nHuman IL-6, IL18, IL1β, MCP-1, MMP-9, and mouse IL-6, IL18, TNFα, MCP-1 and IL-1β were measured with ELISA kits (R&D Systems) according to the manufacturer's instructions.\nSamples were tested for cytokines using the Bio-plex cytokine assay kit (Bio-Rad Laboratories, Inc.) according to the manufacturer's instructions. Briefly, 50 μL anti-cytokine antibody conjugated beads were added to wells of a filter plate pre-equilibrated with assay buffer. The beads were washed, then 50 μL of undiluted cell culture supernatant or 4-fold diluted plasma samples were added and incubated for 2 hours. Biotinylated anti-cytokine antibody (25 μL) was added to each well and the plate was incubated with shaking for 1.5 hours. Streptavidin-PE (50 μL) was added to each well and the plate was incubated with shaking for 45 min. between incubations, wells were washed 3 times with 100 μL wash buffer and unbound analytes were filtered using a vacuum manifold. Following the last wash step, 125 μL of assay buffer was added to each well and the plate was placed on a shaker for 10 min. The plate was read on a Luminex^100 instrument (Luminex Corporation, Austin, Tex.) according to the manufacturer's instructions. The concentration of cytokine was determined from a standard curve assayed at the same time."}, "THP-1 cells [2]": {"tested_on": "THP-1 cells", "assay": "Western blot analysis of LPS, TNF-α and IL-1α induced signaling in THP-1 cells", "format": "cell-based, Human", "protocol": "THP-1 cells in 0.5% FBS/RPMI were pre-treated with or without tipifarnib for 18 hours, and subsequently stimulated with LPS (100 ng/ml), TNF-α (10 ng/ml) or IL-1α (5 ng/ml) for 30 minutes. Cells were harvested, washed three times in ice-cold PBS, and lysed in lysis buffer (20 mM Tris (pH 7.5), 150 mM NaCl, 1 mM EDTA, 1 mM EGTA, 1% Triton X-100, 2.5 mM sodium pyrophosphate, 1 mM ([…], 1 mM Na3VO4, 1 μg/ml Leupeptin, 1 mM PMSF). Cell lysates from each sample were mixed with an equal amount of 2× SDS-PAGE sample buffer (Invitrogen), and proteins were separated by electrophoresis in Tris-glycine 10-20% gradient gels (Novex), and transferred to nitrocellulose membranes (PROTRAN; Schleicher & Schuell). The membranes were blocked with 3% BSA in PBS-0.05% Tween-20, and sequentially incubated with primary antibodies and HRP-conjugated secondary antibodies (anti-rabbit IgG or anti-mouse IgG and IgM; PIERCE), followed by ECL detection (Amersham Biosciences). The primary antibodies used were rabbit polyclonal anti-IκBa, and -p38 (Santa Cruz), mouse monoclonal anti-H-Ras (Chemicon), mouse monoclonal anti-phospho-p38 and rabbit polyclonal anti-phospho-Erk (Cell Signaling Technology)."}, "[3]": {"tested_on": "dextran sodium sulphate-induced colitis", "conditions": "WO 02/43733; cited from earlier work"}, "[4]": {"tested_on": "collagen-induced arthritis", "conditions": "WO 00/01386; cited from earlier work"}, "[5]": {"conditions": "simvastatin 10 μM or tipifarnib 5 μM, 6 and 12 hours"}, "[6]": {"conditions": "second experiment, 3 hours (results not shown)"}}, "note": "Like-named read-outs stand apart in the source and are kept apart here."}
{"smiles": "Cn1cncc1C(N)(c1ccc(Cl)cc1)c1ccc2c(c1)c(-c1cccc(Cl)c1)cc(=O)n2C", "note": "(single isomer, unassigned; (+)) [tipifarnib, (+)-6-[amino(4-chlorophenyl)(1-methyl-1H-imidazol-5-yl)methyl]-4-(3-chlorophenyl)-1-methyl-2(1H)-quinolinone]", "values": [{"measurement": "Induction of IL-8 by LPS", "setting": "THP-1 cells [1]; [5]", "value": "no significant effect"}, {"measurement": "STAT1 induction by LPS", "setting": "THP-1 cells [1]; [5]", "value": "inhibited"}, {"measurement": "Induction of IL-8 by LPS", "setting": "THP-1 cells [1]; simvastatin 10 μM or tipifarnib 5 μM, 3 hours", "value": "unaffected"}, {"measurement": "peak of LPS-induced IL-6 transcription", "setting": "THP-1 cells [1]; simvastatin 10 μM or tipifarnib 5 μM, 6 hours", "value": "inhibition"}, {"measurement": "LPS-induced IL-6 transcription", "setting": "THP-1 cells [1]; simvastatin 10 μM or tipifarnib 5 μM, 12 hours", "value": "inhibition"}, {"measurement": "LPS-induced IL-1β transcription", "setting": "THP-1 cells [1]; simvastatin 10 μM or tipifarnib 5 μM, after 6 and 12 hours", "value": "significantly downregulated"}, {"measurement": "LPS-induced MCP-1 transcription", "setting": "THP-1 cells [1]; simvastatin 10 μM or tipifarnib 5 μM, from 6 hours", "value": "inhibited significantly"}, {"measurement": "LPS-induced IL-1β transcription", "setting": "THP-1 cells [1]; simvastatin 10 μM or tipifarnib 5 μM, up to 3 hours", "value": "unaffected"}, {"measurement": "MyD88 induction by LPS", "setting": "THP-1 cells [1]; tipifarnib 5 μM, 6 and 12 hours", "value": "almost complete inhibition"}, {"measurement": "MMP-9 induction by LPS", "setting": "THP-1 cells [1]; tipifarnib 5 μM, 12 hours", "value": "no induction"}, {"measurement": "LPS-induced TNF-α production", "setting": "BALB/c mice; 50 mg/kg oral 24, 17 and 1 hour before LPS 20 μg i.p., plasma at 1 and 2 hours", "value": "highly significant inhibition"}, {"measurement": "inhibition at 50 mg/kg", "setting": "BALB/c mice; 50 mg/kg oral before LPS, 2 hours, first experiment, read-out: inhibition of MIP-1α production", "value": "~50", "unit": "%"}, {"measurement": "inhibition at 50 mg/kg", "setting": "BALB/c mice; tipifarnib 50 mg/kg oral before LPS, after 3 hours, read-out: inhibition of IL-6 production", "value": "~50", "unit": "%"}, {"measurement": "LPS-induced IL-8", "setting": "BALB/c mice; results not shown", "value": "No effects"}, {"measurement": "LPS-induced RANTES", "setting": "BALB/c mice; results not shown", "value": "No effects"}, {"measurement": "IL12-p40 induction by LPS", "setting": "BALB/c mice; [6]", "value": "inhibited"}, {"measurement": "IL12-p70 induction by LPS", "setting": "BALB/c mice; [6]", "value": "inhibited"}, {"measurement": "IL-1β production", "setting": "BALB/c mice; tipifarnib 50 mg/kg oral before LPS, after 3 hours", "value": "almost complete inhibition"}, {"measurement": "MCP-1 production", "setting": "BALB/c mice; 2 hours", "value": "significant inhibition"}, {"measurement": "MCP-1 production", "setting": "BALB/c mice; 3 hours", "value": "a decrease that did not reach statistical significance"}, {"measurement": "IκB degradation induced by IL-1α", "setting": "THP-1 cells [2]; 2 μM tipifarnib for 18 hours", "value": "no inhibition"}, {"measurement": "IκB degradation induced by TNF-α", "setting": "THP-1 cells [2]; 2 μM tipifarnib for 18 hours", "value": "no inhibition"}, {"measurement": "LPS-induced IκB degradation", "setting": "THP-1 cells [2]; 2 μM tipifarnib for 18 hours", "value": "significantly inhibited"}, {"measurement": "LPS-induced p38 phosphorylation", "setting": "THP-1 cells [2]; 2 μM tipifarnib for 18 hours", "value": "partially reduced"}, {"measurement": "P38 protein expression", "setting": "THP-1 cells [2]; 2 μM tipifarnib for 18 hours", "value": "not affected"}, {"measurement": "TNF-α induced p38 phosphorylation", "setting": "THP-1 cells [2]; 2 μM tipifarnib for 18 hours", "value": "No significant inhibition"}, {"measurement": "H-Ras farnesylation", "setting": "THP-1 cells [2]; tipifarnib pre-treatment, all treatment groups", "value": "partially inhibited"}, {"measurement": "ERK phosphorylation", "setting": "THP-1 cells [2]; tipifarnib pre-treatment, control and stimulated cells", "value": "reduced"}, {"measurement": "disease scores", "setting": "[3]", "value": "reduction of disease scores"}, {"measurement": "disease scores", "setting": "[4]", "value": "reduction of disease scores"}]}
